What was measured:
Type in all cases: in vivo
[1] = test system: barnyardgrass (Echinochloa crus-galli); experiment: Test A postemergence application, visual injury rating 0-100
Procedure, shortened: (§1)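 Rating: visual, day 10, untreated plants as reference, 0 no effect to 100 full control. Plants were in loam-sand and were treated either preemergence via directed soil spray or postemergence at the one- to two-leaf stage.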

[2] = test system: blackgrass (Alopecurus myosuroides); experiment: as above
Procedure, shortened: as §1

[3] = test system: galium (catchweed bedstraw, Galium aparine); experiment: as above
Procedure, shortened: as §1

[4] = test system: wheat (Triticum aestivum); experiment: as above
Procedure, shortened: as §1

[5] = test system: ryegrass, Italian (italian ryegrass, Lolium multiflorum); experiment: as above
Procedure, shortened: as §1

[6] = test system: horseweed (Erigeron canadensis); experiment: as above
Procedure, shortened: as §1

soybean (Glycine max) [7] = experiment: as above
Procedure, shortened: as §1

[8] = test system: palmer (palmer amaranth, palmer pigweed, Amaranthus palmeri); experiment: as above
Procedure, shortened: as §1

kochia (Bassia scoparia) [9] = experiment: as above
Procedure, shortened: as §1

[10] = test system: ragweed (common ragweed, Ambrosia artemisiifolia); experiment: as above
Procedure, shortened: as §1

corn (Zea mays) [11] = experiment: as above
Procedure, shortened: as §1

[12] = test system: green foxtail (Setaria viridis); experiment: as above
Procedure, shortened: as §1

[13] = test system: oat, wild (wild oat, Avena fatua); experiment: as above
Procedure, shortened: as §1

[14] = test system: barnyardgrass (Echinochloa crus-galli); experiment: Test A preemergence soil spray, visual injury rating 0-100; details: 10 days
Procedure, shortened: as §1

[15] = test system: blackgrass (Alopecurus myosuroides); experiment: as above; details: 10 days
Procedure, shortened: as §1

[16] = test system: wheat (Triticum aestivum); experiment: as above; details: 10 days
Procedure, shortened: as §1

[17] = test system: ryegrass, Italian (italian ryegrass, Lolium multiflorum); experiment: as above; details: 10 days
Procedure, shortened: as §1

soybean (Glycine max) [18] = experiment: as above; details: 10 days
Procedure, shortened: as §1

[19] = test system: palmer (palmer amaranth, palmer pigweed, Amaranthus palmeri); experiment: as above; details: 10 days
Procedure, shortened: as §1

kochia (Bassia scoparia) [20] = experiment: as above; details: 10 days
Procedure, shortened: as §1

[21] = test system: ragweed (common ragweed, Ambrosia artemisiifolia); experiment: as above; details: 10 days
Procedure, shortened: as §1

corn (Zea mays) [22] = experiment: as above; details: 10 days
Procedure, shortened: as §1

[23] = test system: green foxtail (Setaria viridis); experiment: as above; details: 10 days
Procedure, shortened: as §1

[24] = test system: oat, wild (wild oat, Avena fatua); experiment: as above; details: 10 days
Procedure, shortened: as §1

[25] = test system: ducksalad (Heteranthera limosa); experiment: Test B flooded paddy test, visual plant response rating 0-100; details: 250 g ai/ha, Flood, applied to paddy water, evaluated after 13 days
Procedure, shortened: (§2)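 Greenhouse, 13 d. Seedlings at 2-leaf stage, pots flooded to 3 cm, compound delivered into floodwater, water level held constant. Evaluated visually relative to controls.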

[26] = test system: barnyardgrass (Echinochloa crusgalli); experiment: as above; details: 250 g ai/ha, Flood, applied to paddy water, evaluated after 13 days
Procedure, shortened: as §2

rice (Oryza sativa) = experiment: as above; details: 250 g ai/ha, Flood, applied to paddy water, evaluated after 13 days
Procedure, shortened: as §2

[27] = test system: sedge, umbrella (small-flower umbrella sedge, Cyperus difformis); experiment: as above; details: 250 g ai/ha, Flood, applied to paddy water, evaluated after 13 days
Procedure, shortened: as §2

[28] = 62 g ai/ha, postemergence, 10 days, 0 = no effect, 100 = complete control
[29] = Postemergence, 16 g ai/ha, greenhouse 10 days, 0 no effect, 100 complete control
[30] = 62 g ai/ha, 0 = no effect, 100 = complete control

For CC1(C(=O)NC2C=CC(C(=O)O)C2)CN(c2cc(F)cc(F)c2)C(=O)O1 (stereo not shown) [Compound 131], the “Barnyardgrass plant response rating (0-100)” value [1, 28] was 100, the “Barnyardgrass plant response rating (0 to 100 scale)” value [1, 29] was 90 and the “Blackgrass plant response rating (0-100)” value [2, 28] was 90. The “Blackgrass plant response rating (0 to 100 scale)” value [2, 29] was 90, the “Galium plant response rating (0-100)” value [3, 28] was 90 and the “Galium plant response rating (0 to 100 scale)” value [3, 29] was 70. For the same molecule, the “Wheat plant response rating (0-100)” value [4, 28] was 90, the “Wheat plant response rating (0 to 100 scale)” value [4, 29] was 90 and the “Ryegrass, Italian plant response rating (0-100)” value [5, 28] was 90. For the same molecule, the “Ryegrass, Italian plant response rating (0 to 100 scale)” value [5, 29] was 10, the “Horseweed plant response rating (0-100)” value [6, 28] was 80 and the “Horseweed plant response rating (0 to 100 scale)” value [6, 29] was 40. For the same molecule, the “Soybean plant response rating (0-100)” value (soybean (Glycine max) [7]; [28]) was 80, the “Soybean plant response rating (0 to 100 scale)” value (soybean (Glycine max) [7]; [29]) was 80 and the “Pigweed, Palmer plant response rating (0-100)” value [8, 28] was 80. For the same molecule, the “Pigweed, Palmer plant response rating (0 to 100 scale)” value [8, 29] was 20, the “Kochia plant response rating (0-100)” value (kochia (Bassia scoparia) [9]; [28]) was 50 and the “Kochia plant response rating (0 to 100 scale)” value (kochia (Bassia scoparia) [9]; [29]) was 20. The “Ragweed plant response rating (0-100)” value [10, 28] was 70, the “Ragweed plant response rating (0 to 100 scale)” value [10, 29] was 0 and the “Corn plant response rating (0-100)” value (corn (Zea mays) [11]; [28]) was 100. For the same molecule, the “Corn plant response rating (0 to 100 scale)” value (corn (Zea mays) [11]; [29]) was 50, the “Foxtail, Green plant response rating (0-100)” value [12, 28] was 90 and the “Foxtail, Green plant response rating (0 to 100 scale)” value [12, 29] was 30. For the same molecule, the “Oat, Wild plant response rating (0-100)” value [13, 28] was 90, the “Oat, Wild plant response rating (0 to 100 scale)” value [13, 29] was 90 and the “Barnyardgrass plant response rating” value ([14]; 16 g ai/ha, 0 to 100 scale) was 0. The “Barnyardgrass plant response rating (0-100)” value [14, 30] was 80, the “Blackgrass plant response rating” value ([15]; 16 g ai/ha, 0 to 100 scale) was 30 and the “Blackgrass plant response rating (0-100)” value [15, 30] was 90. For the same molecule, the “Wheat plant response rating” value ([16]; 16 g ai/ha, 0 to 100 scale) was 30, the “Wheat plant response rating (0-100)” value [16, 30] was 90 and the “Ryegrass, Italian plant response rating” value ([17]; 16 g ai/ha, 0 to 100 scale) was 0. The “Ryegrass, Italian plant response rating (0-100)” value [17, 30] was 90, the “Soybean plant response rating” value (soybean (Glycine max) [18]; 16 g ai/ha, 0 to 100 scale) was 0 and the “Soybean plant response rating (0-100)” value (soybean (Glycine max) [18]; [30]) was 80. The “Pigweed, Palmer plant response rating” value ([19]; 16 g ai/ha, 0 to 100 scale) was 0, the “Pigweed, Palmer plant response rating (0-100)” value [19, 30] was 80 and the “Kochia plant response rating” value (kochia (Bassia scoparia) [20]; 16 g ai/ha, 0 to 100 scale) was 0. The “Kochia plant response rating (0-100)” value (kochia (Bassia scoparia) [20]; [30]) was 90, the “Ragweed plant response rating” value ([21]; 16 g ai/ha, 0 to 100 scale) was 0 and the “Ragweed plant response rating (0-100)” value [21, 30] was 10. The “Corn plant response rating” value (corn (Zea mays) [22]; 16 g ai/ha, 0 to 100 scale) was 10, the “Corn plant response rating (0-100)” value (corn (Zea mays) [22]; [30]) was 80 and the “Foxtail, Green plant response rating” value ([23]; 16 g ai/ha, 0 to 100 scale) was 0. For the same molecule, the “Foxtail, Green plant response rating (0-100)” value [23, 30] was 100, the “Oat, Wild plant response rating” value ([24]; 16 g ai/ha, 0 to 100 scale) was 0 and the “Oat, Wild plant response rating (0-100)” value [24, 30] was 60. For the same molecule, the “Plant response rating, Ducksalad (0 to 100 scale, 0 is no effect and 100 is complete control)” value [25] was 80, the “Plant response rating, Barnyardgrass (0 to 100 scale, 0 is no effect and 100 is complete control)” value [26] was 95 and the “Plant response rating, Rice (0 to 100 scale, 0 is no effect and 100 is complete control)” value (rice (Oryza sativa)) was 70. For the same molecule, the “Plant response rating, Sedge, Umbrella (0 to 100 scale, 0 is no effect and 100 is complete control)” value [27] was 95.

— patent publication US20260285850A1, “SUBSTITUTED OXAZOLIDINONES AND IMIDAZOLINONES AS HERBICIDES” (FMC CORPORATION, priority 2023, published 2026)
